B1: UGT1A1 (Homo sapiens) (protein)
chain: HAGKILLIPVDGSHWLSMLGAIQQLQQRGHEIVVLAPDASLYIRDGAFYTLKTYPVPFQREDVKESFVSLGHNVFENDSFLQRVIKTYKKIKKDSAMLLSGCSHLLHNKELMASLAESSFDVMLTDPFLPCSPIVAQYLSLPTVFFLHALPCSLEFEATQCPNPFSYVPRPLSSHSDHMTFLQRVKNMLIAFSQNFLCDVVYSPYATLASEFLQREVTVQDLLSSASVWLFRSDFVKDYPRPIMPNMVFVGGINCLHQNPLSQEFEAYINASGEHGIVVFSLGSMVSEIPEKKAMAIADALGKIPQTVLWRYTGTRPSNLANNTILVKWLPQNDLLGHPMTRAFITHAGSHGVYESICNGVPMVMMPLFGDQMDNAKRMETKGAGVTLNVLEMTSEDLENALKAVINDKSYKENIMRLSSLHKDRPVEPLDLAVFWVEFVMRHKGAPHLRPAAHDLTWYQYHSLDVIGFLLAVVLTVAFITFKCCAYGYRKCLGKKGRVKKAHKSKTH
notes: purchased BD Gentest

What was measured:
Acidic stability test = type: physicochemical; details: for variation in concentrations between beginning and after 24 h: 37°C, acidic solutions pH 2.6–6.5; for stability in acidic solutions: 24 h incubation at 37°C, pH 2.6–6.5
Method: 1 mg/mL of belinostat-G and vorinostat-G was prepared in various vehicles with different pH values. These vehicles included 10 mM ammonium acetate (pH = 6.5), 10 mM ammonium formate (pH = 6.0), 0.1% acetic acid (pH = 3.2) and 0.1% formic acid (pH = 2.6). All of these test samples were incubated at 37°C for 24 h. Milli Q water (pH = 5.5) was used as control solution which was stored in −20°C. All the samples were analyzed by LC-MS/MS to obtain the values of peak area for belinostat-G and vorinostat-G. The acidic stability of both conjugated compounds was evaluated through comparison of peak area ratio of test samples versus control.

HepG2 cells [1] = assay: Gentian Violet viability staining, 24-well plates; type: cell-based, human; details: 0–10 µM, 72 h
Method: (§1) To the other plate, equal molar concentrations of belinostat-G were added similarly. After 72 h, cells were stained with Gentian Violet paint (0.5% w/v; B.P.) and assessed for viability. […] After incubating 24 h, 100-µL drug solution or blank medium was added into each well of 96-well plates. 72 h later, 20 µL of MTS/PES was added into each well for incubation for 3 h. OD values are measured on wavelength 490 nm. Cell growth inhibition was calculated based on the […] with subtraction of background reading for only medium containing wells. The growth inhibition was defined as the percentage of the average […] from drug-treated wells over that from control wells without treatment. The experiment was done in triplicates. IC50 values were calculated using GraphPad PRISM software (GraphPad Software, Inc., La Jolla, CA, USA).

HepG2 cells [2] = assay: MTS growth inhibition assay; type: cell-based, human; details: HepG2, 72 h
Method: as §1

[3] = Pharmacokinetics after 30 min i.v. infusion, phase I trial in hepatocellular carcinoma patients; type: in vivo, human; details: for Relative Exposure, Bel-G/Bel AUC ratio: AUC0–24 h molar ratio; for relative systemic exposure of belinostat glucuronide versus belinostat: human plasma, molar concentration AUC ratio
Method: This multicentre phase I trial of belinostat was done in Hong Kong and Singapore. All patients provided written informed consent according to Good Clinical Practice guidelines, and the protocol was approved by the institutional review boards of Prince of Wales Hospital, Hong Kong and National University Hospital, Singapore.
Venous blood samples had been collected in heparinized tubes. Collected blood samples were centrifuged at 3000 g for 10–15 min and the plasma (supernatant) was separated from the cell pellet and stored in plain tubes at –80°C till analysis. […] Briefly, vorinostat-G was used as the internal standard for belinostat-G. The mass spectrometer was operated in positive ion mode with the optimal mass transitions of belinostat-G: m/z 495>93 and vorinostat-G: m/z 441>232, respectively. The analytical method was well validated with good linearity (coefficient of determination, r^2≥0.999) in the range of 1–100 µM for belinostat-G.
Pharmacokinetic parameters were estimated based on non-compartmental analysis model using WinNonlin software version 5.3 (Pharmsight, Sunnyvale, CA, USA). […] One way analysis of variance (ANOVA) was used to determine the significance among the genotypes with Tukey posthoc tests for adjustment for comparison between individual groups. A value of p<0.05 was considered to be significant.

[4] = substrate: O=C(/C=C/c1cccc(S(=O)(=O)Nc2ccccc2)c1)NO; assay: UGT supersome screening and kinetic analysis; type: in vitro ADME, human; details: other: UGT1A1 supersomes, 10 to 750 µM substrate, Michaelis-Menten
Method: Before the addition of substrate, the incubation mixture was prewarmed and equilibrated for 5 min at 37°C. […] The incubation mixture was vortexed and centrifuged (10,060 g) at 4°C for 10 min, and the supernatants were analyzed. Insect microsomes without UGT cDNA served as negative control. […] Incubations were performed as described above. Three independent experiments were performed for kinetic analysis.
Plots of substrate concentration, S (X axis) versus v (Y axis) were then constructed. Km and Vmax were calculated using the Michaelis-Menten equation (GraphPad software, Inc., San Diego, CA, USA).

| Molecule | variation in concentrations between beginning and after 24 h (Acidic stability test) [%] | stability in acidic solutions (Acidic stability test) | degradation (Acidic stability test; pH 2.6, 37°C, 24 h) [%] | cytotoxicity / cell viability (staining) (HepG2 cells [1]) | IC50 (MTS) (HepG2 cells [2]) | Relative Exposure, Bel-G/Bel AUC ratio ([3]; 600 mg/m^2) | Relative Exposure, Bel-G/Bel AUC ratio ([3]; 900 mg/m^2) | Relative Exposure, Bel-G/Bel AUC ratio ([3]; 1200 mg/m^2) | Relative Exposure, Bel-G/Bel AUC ratio ([3]; 1400 mg/m^2) | relative systemic exposure of belinostat glucuronide versus belinostat ([3]; listed as belinostat glucuronide) | relative systemic exposure of belinostat glucuronide versus belinostat ([3]; listed as belinostat-G) [fold] | Km [4] [µM] | Vmax [4] [pmol/min/mg protein] | Vmax/Km [4] [µL/min/mg protein] |
| --- | --- | --- | --- | --- | --- | --- | --- | --- | --- | --- | --- | --- | --- | --- |
| O=C(/C=C/c1cccc(S(=O)(=O)Nc2ccccc2)c1)NO[C@@H]1O[C@H](C(=O)O)[C@@H](O)[C@H](O)[C@H]1O [Belinostat-G, Belinostat glucuronide] | < 4 | stable | 7 | did not seem to affect cell viability | cannot be converged | 4.79±0.46 | 4.22±0.15 | 4.82±1.80 | 4.13±0.68 | more than 4 fold | 4 |  |  |  |
| O=C(CCCCCCC(=O)Nc1ccccc1)NO[C@@H]1O[C@H](C(=O)O)[C@@H](O)[C@H](O)[C@H]1O [vorinostat-G, Vorinostat glucuronide] | < 4 | stable |  |  |  |  |  |  |  |  |  |  |  |  |
| B1 |  |  |  |  |  |  |  |  |  |  |  | 99.6 | 353.1 | 3.5 |
